Laboratory results as given in US9447120B2, “Crystalline forms of zinc trisodium pentetic acid” (Hameln Pharma Plus GmbH, priority 2013, dated 2016).

What was measured:
[1] = Determination of the hygroscopicity (weight increase in a stability chamber); type: physicochemical
Procedure: Here, the samples used were each subjected to the same pre-drying process (cf. Examples 3 and 4). The samples were exposed in each case for the time period stated in the Table at 25° C. and an air humidity of 65% relative air humidity.
The hygroscopicity of Zn-DTPA was checked by measuring the weight increase in a controlled environment. At air temperature (25±2°) C. and (60±5)% air humidity in a stability chamber (Thermo TEC), the weights of two samples (5.000 g) in each case were checked (Analytical balance, XS 205, Mettler Toledo). The weight was checked after 1, 2, 4, 6, 8, 24 and 48 hours.

[2] = lyophilized powder, over 24 h; cited from earlier work
[3] = Table 6, time 1 h, 25° C., 65% relative air humidity
[4] = Table 6, time 2 h, 25° C., 65% relative air humidity
[5] = Table 6, time 4 h, 25° C., 65% relative air humidity
[6] = Table 6, time 6 h, 25° C., 65% relative air humidity
[7] = Table 6, time 8 h, 25° C., 65% relative air humidity
[8] = Table 6, time 24 h, 25° C., 65% relative air humidity
[9] = Table 6, time 48 h, 25° C., 65% relative air humidity

| Compound | Mean mass increase [1, 3] [%] | Mean mass increase [1, 4] [%] | Mean mass increase [1, 5] [%] | Mean mass increase [1, 6] [%] | Mean mass increase [1, 7] [%] | Mean mass increase [1, 8] [%] | Mean mass increase [1, 9] [%] | other results |
| --- | --- | --- | --- | --- | --- | --- | --- | --- |
| O=C([O-])CN(CCN(CC(=O)[O-])CC(=O)[O-])CCN(CC(=O)[O-])CC(=O)[O-].[Na+].[Na+].[Na+].[Zn+2] [Form I, trisodium zinc diethylenetriaminepentaacetate] | 0.32 | 0.54 | 0.92 | 1.34 | 1.64 | 3.91 | 6.81 |  |
| O=C([O-])CN(CCN(CC(=O)[O-])CC(=O)[O-])CCN(CC(=O)[O-])CC(=O)[O-].[Na+].[Na+].[Na+].[Zn+2] [Amorph I, trisodium zinc diethylenetriaminepentaacetate] | 0.51 | 0.89 | 1.56 | 2.35 | 2.95 | 7.38 | 11.92 | Mean mass increase ([1]; Table 1, time 1 h, product obtained by prior-art route, listed as Batch 1): 0.51%; Mean mass increase ([1]; Table 1, time 2 h, product obtained by prior-art route, listed as Batch 1): 0.89%; Mean mass increase ([1]; Table 1, time 4 h, product obtained by prior-art route, listed as Batch 1): 1.56%; Mean mass increase ([1]; Table 1, time 6 h, product obtained by prior-art route, listed as Batch 1): 2.35%; Mean mass increase ([1]; Table 1, time 8 h, product obtained by prior-art route, listed as Batch 1): 2.95%; Mean mass increase ([1]; Table 1, time 24 h, product obtained by prior-art route, listed as Batch 1): 7.38%; Mean mass increase ([1]; Table 1, time 48 h, product obtained by prior-art route, listed as Batch 1): 11.92% |
| O=C([O-])CN(CCN(CC(=O)[O-])CC(=O)[O-])CCN(CC(=O)[O-])CC(=O)[O-].[Na+].[Na+].[Na+].[Zn+2] [Form II, A, trisodium zinc diethylenetriaminepentaacetate] | 0.34 | 0.57 | 1.00 | 1.49 | 1.84 | 4.42 | 5.07 |  |
| O=C([O-])CN(CCN(CC(=O)[O-])CC(=O)[O-])CCN(CC(=O)[O-])CC(=O)[O-].[Na+].[Na+].[Na+].[Zn+2] [Form II, B, trisodium zinc diethylenetriaminepentaacetate] | 0.41 | 0.72 | 1.29 | 1.97 | 2.43 | 5.18 | 5.25 |  |
| O=C([O-])CN(CCN(CC(=O)[O-])CC(=O)[O-])CCN(CC(=O)[O-])CC(=O)[O-].[Na+].[Na+].[Na+].[Zn+2] [conventional Zn-DTPA, trisodium zinc diethylenetriaminepentaacetate] |  |  |  |  |  |  |  | behaviour due to hygroscopy ([1]; sufficiently long exposure to air humidity): deliquesces |
| O=C([O-])CN(CCN(CC(=O)[O-])CC(=O)[O-])CCN(CC(=O)[O-])CC(=O)[O-].[Na+].[Na+].[Na+].[Zn+2] [Amorph Il, trisodium zinc diethylenetriaminepentaacetate] | 0.56 | 0.97 | 1.73 | 2.61 | 3.26 | 7.82 | 12.02 | Mean mass increase ([1]; Table 1, time 1 h, product obtained by prior-art route, listed as Batch 2): 0.56%; Mean mass increase ([1]; Table 1, time 2 h, product obtained by prior-art route, listed as Batch 2): 0.97%; Mean mass increase ([1]; Table 1, time 4 h, product obtained by prior-art route, listed as Batch 2): 1.73%; Mean mass increase ([1]; Table 1, time 6 h, product obtained by prior-art route, listed as Batch 2): 2.61%; Mean mass increase ([1]; Table 1, time 8 h, product obtained by prior-art route, listed as Batch 2): 3.26%; Mean mass increase ([1]; Table 1, time 24 h, product obtained by prior-art route, listed as Batch 2): 7.82%; Mean mass increase ([1]; Table 1, time 48 h, product obtained by prior-art route, listed as Batch 2): 12.02% |
| O=C([O-])CN(CCN(CC(=O)[O-])CC(=O)[O-])CCN(CC(=O)[O-])CC(=O)[O-].[Na+].[Na+].[Na+].[Zn+2] [Zn-DTPA, trisodium zinc diethylenetriaminepentaacetate] |  |  |  |  |  |  |  | water absorbed [2]: more than 10 % by weight |
